Patent publication US20040248887A1, “Inhibitors of cathepsin S” (IRM LLC, priority 2003, published 2004)

Each compound was assayed against Cathepsin S (Homo sapiens, UniProt P25774) (assay: Cathepsin S inhibition, fluorogenic peptide substrate kinetic assay). Settings: Table II; Cathepsin S inhibition constant, pH5.5; read-out: Ki Cat. S.
Format: biochemical
Description: “Inhibition constant”, Ki, is the dissociation constant of the enzyme-inhibitor complex, or the reciprocal of the binding affinity of the inhibitor to the enzyme. […] The inhibited rates are then fit by nonlinear regression to the following equation: [formula]
where vo is the initial rate of substrate processing in the absence of inhibitor, v; is the initial rate of substrate processing at a concentration [I] of inhibitor, Km is the steady state Michaelis constant (Fersht, A. Structure and Mechanism in Protein Science. New York, W.H. Freeman and Company, 1999), and [S] is the concentration of competitive substrate.
The assumption being made for the classical inhibition described above is that the free inhibitor concentration is equal to the total inhibitor concentration.
The inhibition constant, Ki, can be determined from the apparent inhibition constant, Ki^app, for competitive inhibitors by using the following relationship: [formula]
The optimal substrate for cathepsin S, acetyl-histidine-proline-valine-lysine-amino carbamoyl coumarin, was identified from screening a combinatorial library of fluorogenic peptide substrates (Harris, J. L., B. J. Backes, et al., Proc Natl Acad Sci USA 2000, 97(14), 7754-9). Kinetic measurements are performed in a total reaction volume of 30 μl in 384-well microtiter plates. […] The reactions are initiated by adding the substrate, acetyl-histidine-proline-valine-lysine-amino carbamoyl coumarin, to a final concentration of 50 μM. The rate of substrate hydrolysis is measured by monitoring the increase in fluorescence at an excitation wavelength of 380 nm and an emission wavelength of 450 nm that results from cleavage of the aniline bond in the substrate by the enzyme. The apparent inhibition constants for the compounds are determined from the enzyme progress curves (Kuzmic, P., K. C. Elrod, et al., Anal Biochem 2000, 286(1), 45-50) and are then used to calculate the inhibition constants for competitive inhibitors.

Sequence of Cathepsin S (P25774 115-331, species assumed): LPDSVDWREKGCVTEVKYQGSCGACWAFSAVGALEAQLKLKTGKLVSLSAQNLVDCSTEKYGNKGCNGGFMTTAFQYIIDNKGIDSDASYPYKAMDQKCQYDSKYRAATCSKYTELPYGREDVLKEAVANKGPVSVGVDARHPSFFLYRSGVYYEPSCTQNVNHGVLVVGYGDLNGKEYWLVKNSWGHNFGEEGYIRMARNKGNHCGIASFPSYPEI

Row | SMILES | Ki
1 | O=C(NCCN1CCc2cc(F)ccc21)[C@H](CC1CCCCC1)NS(=O)(=O)c1cc(Cl)c(Cl)s1 [Compound 258, (S)-3-Cyclohexyl-2-(4,5-dichloro-thiophene-2-sulfonylamino)-N-[2-(5-fluoro-2,3-dihydro-indol-1-yl)-ethyl]-propionamide] | < 1000 nM
2 | O=C(N[C@H](C(=O)N[C@H](CO)CN1CCc2cc(F)ccc21)c1ccc(Cl)cc1Cl)c1ccc(F)c(F)c1 [Compound 214, (S,S)-N-((3-(5-fluoroindolin-1-yl)-1-hydroxypropan-2-ylcarbamoyl)(2,4-dichlorophenyl)methyl)-3,4-difluorobenzamide] | < 1000 nM
3 | C[C@@H](CNc1ccc(OC(F)(F)F)cc1)NC(=O)[C@H](CC1CCCCC1)NC(=O)c1ccc(-c2cccnc2)o1 [Compound 143, 5-Pyridin-3-yl-furan-2-carboxylic acid {2-cyclohexyl-1-(S)-[1-(S)-methyl-2-(4-trifluoromethoxy-phenylamino)-ethylcarbamoyl]-ethyl}-amide] | < 100 nM
4 | O=C(N[C@@H](Cc1ccccc1)C(=O)NCCN1CCc2cc(F)ccc21)c1ccc(-c2cccc(C(F)(F)F)c2)o1 [Compound 206, N-((S)-1-(2-(5-fluoroindolin-1-yl)ethylcarbamoyl)-2-phenylethyl)-5-(3-(trifluoromethyl)phenyl)furan-2-carboxamide] | < 1000 nM
5 | C[C@@H](CNc1ccc(OC(F)(F)F)cc1)NC(=O)[C@H](CC1CCCC1)NC(=O)O[C@H]1CCOC1 [Compound 192, (S,S)-{2-Cyclopentyl-1-[1-methyl-2-(4-trifluoromethoxy-phenylamino)-ethylcarbamoyl]-ethyl}-carbamic acid tetrahydrofuran-3-(S)-yl ester] | < 100 nM
6 | O=C(NCCN1CCc2cc(F)ccc21)[C@H](CC1CCCCC1)NS(=O)(=O)c1ccc(S(=O)(=O)c2ccccc2)s1 [Compound 256, (S)-2-(5-Benzenesulfonyl-thiophene-2-sulfonylamino)-3-cyclohexyl-N-[2-(5-fluoro-2,3-dihydro-indol-1-yl)-ethyl]-propionamide] | < 1000 nM
7 | O=C(N[C@@H](CC1CCCCC1)C(=O)NCCN1CCc2cc(F)ccc21)c1ccc(OC2CCNCC2)cc1 [Compound 67, N-(S)-{2-cyclohexyl-1-[2-(5-fluoro-2,3-dihydro-indol-1-yl)-ethylcarbamoyl]-ethyl}-4-(piperidin-4-yloxy)-benzamide] | < 1000 nM
8 | CC(C(=O)N[C@@H](CC1CCCCC1)C(=O)NCCN1CCc2cc(F)ccc21)c1ccc(Cl)cc1 (stereo partly drawn) [Compound 64, 2-(4-Chloro-phenyl)-N-{2-cyclohexyl-1-(S)-[2-(5-fluoro-2,3-dihydro-indol-1-yl)-ethylcarbamoyl]-ethyl}-propionamide] | < 100 nM
9 | COc1cccc(C(=O)NC(C(=O)N[C@@H](COCc2ccccc2)CN2CCc3cc(F)ccc32)c2ccccc2)c1 (mixture of isomers) [Compound 36, N-(S)-{[1-(R)-Benzyloxymethyl-2-(5-fluoro-2,3-dihydro-indol-1-yl)-ethylcarbamoyl]-phenyl-methyl}-3-methoxy-benzamide] | < 100 nM
10 | C[C@@H](CN1CCc2cc(F)ccc21)NC(=O)[C@H](CC1CCCCC1)NS(=O)(=O)c1cccc(OC(F)(F)F)c1 [Compound 254, (S,S)-3-Cyclohexyl-N-[2-(5-fluoro-2,3-dihydro-indol-1-yl)-1-methyl-ethyl]-2-(3-trifluoromethoxy-benzenesulfonylamino)-propionamide] | < 100 nM
11 | C[C@@H](CNc1ccc(SC(F)(F)F)cc1)NC(=O)[C@H](CC1CCCCC1)NC(=O)c1ccc(-c2cccc(F)c2)o1 [Compound 119, 5-(3-Fluoro-phenyl)-furan-2-carboxylic acid {2-cyclohexyl-1-(S)-[1-(S)-methyl-2-(4-trifluoromethylsulfanyl-phenylamino)-ethylcarbamoyl]-ethyl}-amide] | < 100 nM
